According to patent US20260076372A1, “SPRAYABLE ANTIFUNGAL COMPOSITION FOR USE IN THE FIELD OF AGRICULTURE, AND ASSOCIATED METHOD AND USE” (GAIAGO, priority 2022, published 2026):

Legend:
Assay type in all cases: cell-based
Alternaria solani = assay: in vitro 96-well micro-titration test on Alternaria solani spores; details: for EC95 (%): A. solani, Table 22, ingredient alone in water
[1] = system: Septoria tritici (Zymoseptoria tritici); assay: in vitro 96-well micro-titration test on Septoria tritici / Zymoseptoria tritici; details: for EC95 (%): Z. tritici, Table 23, ingredient alone in water
Plasmopara viticola = assay: in vitro antifungal action of single ingredients on Plasmopara viticola
From the text: In Vitro Results Showing the Syngergistic Action of Yucca Juice with the Other Compounds of the Composition According to the Invention on A. solani, Z. tritici, and Plasmopara viticola,
The following tables show in vitro the synergistic antifungal action between yucca juice and the other compounds of the composition of the invention on various pathogens. The concentrations given are as a mass %. The solutions tested as aqueous solutions.
Mo denotes sodium molybdate, Bo denotes boron ethanolamine.

[2] = Concentration 0.05% mass of the stated aqueous solution

Compound | EC95 (%) (Alternaria solani) | inhibition of A. solani, ingredient alone in water (Alternaria solani; [2]) [%] | inhibition of A. solani, ingredient alone in water (Alternaria solani; Concentration 0.50%) [%] | inhibition of A. solani, ingredient alone in water (Alternaria solani; Concentration 1.00%) [%] | inhibition of A. solani, ingredient alone in water (Alternaria solani; Concentration 2.00%) [%] | inhibition of A. solani, ingredient alone in water (Alternaria solani; Concentration 3.00%) [%] | inhibition of A. solani, ingredient alone in water (Alternaria solani; Concentration 6.00%) [%] | inhibition of A. solani, ingredient alone in water (Alternaria solani; Concentration 10.00%) [%] | inhibition of Z. tritici, ingredient alone in water ([1]; Concentration 0.05%) [%] | inhibition of Z. tritici, ingredient alone in water ([1]; Concentration 0.50%) [%] | inhibition of Z. tritici, ingredient alone in water ([1]; Concentration 1.00%) [%] | inhibition of Z. tritici, ingredient alone in water ([1]; Concentration 2.00%) [%] | inhibition of Z. tritici, ingredient alone in water ([1]; Concentration 3.00%) [%] | inhibition of Z. tritici, ingredient alone in water ([1]; Concentration 6.00%) [%] | inhibition of Z. tritici, ingredient alone in water ([1]; Concentration 10.00%) [%] | EC95 (%) [1] [%] | in vitro activity against Plasmopara viticola, ingredient alone in water (Plasmopara viticola; Concentration 0.05%) [%] | in vitro activity against Plasmopara viticola, ingredient alone in water (Plasmopara viticola; Concentration 0.50%) [%] | in vitro activity against Plasmopara viticola, ingredient alone in water (Plasmopara viticola; Concentration 1.00%) [%] | in vitro activity against Plasmopara viticola, ingredient alone in water (Plasmopara viticola; Concentration 2.00%) [%] | other results
O=S(=O)([O-])[O-].[Cu+2] [Cu 1.5%] | >10 | −2.8 | −1.4 | −1.9 | −1.8 | −4.9 | −1.8 | −2.9 | 11.9 | 17.3 | 22.1 | 23.6 | 20.9 | 24.1 | 28.2 | >10 |  |  |  |  | 
[Cl-].[K+] [KCl 0.24%] | >10 | 1.2 | −3.6 | −3.9 | −8.9 | −1.3 | −1.2 | −2.9 | 4.7 | 2.2 | 1.4 | 0.1 | 0.3 | 7.9 | 3.8 | >10 | 10.83 | 51.35 | 69.10 | 75.81 | in vitro activity against Plasmopara viticola, ingredient alone in water (Plasmopara viticola; Concentration 3.00%): 83.20%; in vitro activity against Plasmopara viticola, ingredient alone in water (Plasmopara viticola; Concentration 6.00%): 94.91%; in vitro activity against Plasmopara viticola, ingredient alone in water (Plasmopara viticola; Concentration 10.00%): 97.43%
O=S(=O)([O-])[O-].[Mn+2] [Mn 3.7%] | >10 | −2.3 | 0.0 | 12.8 | 15.1 | 17.6 | 38.8 | 48.4 | 12.9 | 13.8 | 12.9 | 18.6 | 20.0 | 17.0 | 23.1 | >10 | 31.02 | 87.05 | 94.13 | 97.24 | in vitro activity against Plasmopara viticola, ingredient alone in water (Plasmopara viticola; Concentration 3.00%): 97.70%; in vitro activity against Plasmopara viticola, ingredient alone in water (Plasmopara viticola; Concentration 6.00%): 97.72%; in vitro activity against Plasmopara viticola, ingredient alone in water (Plasmopara viticola; Concentration 10.00%): 97.79%
O=S(=O)([O-])[O-].[Fe+2] [Fe 4%] | 2.3 | −4.7 | −4.3 | −0.4 | 49.6 | 100.0 | 100.0 | 100.0 | 9.8 | 37.1 | 38.8 | 54.9 | 100.0 | 100.0 | 100.0 | 2.86 |  |  |  |  | efficacy against Z. tritici (glume blotch) in vitro ([1]; dose of 0.5%): ~37%
[Na+].[Na+].[O]=[Mo](=[O])([O-])[O-] [Mo 0.01%, sodium molybdate] | >10 | 2.2 | −1.2 | −7.4 | −1.3 | −1.8 | −1.5 | −0.4 | −1.7 | −1.1 | −2.3 | −2.2 | −1.8 | −1.6 | −2.2 | >10 | 15.33 | 46.43 | 53.15 | 72.42 | in vitro activity against Plasmopara viticola, ingredient alone in water (Plasmopara viticola; Concentration 3.00%): 74.22%; in vitro activity against Plasmopara viticola, ingredient alone in water (Plasmopara viticola; Concentration 6.00%): 74.22%; in vitro activity against Plasmopara viticola, ingredient alone in water (Plasmopara viticola; Concentration 10.00%): 96.02%
O=S(=O)([O-])[O-].[Mg+2] [Mg 0.5%] | >10 | −1.2 | −8.0 | −2.2 | −1.8 | −1.3 | −2.5 | −2.4 | 0.7 | 0.9 | 2.3 | −2.9 | −0.1 | 11.3 |  | >10 | 13.88 | 43.93 | 53.33 | 69.80 | in vitro activity against Plasmopara viticola, ingredient alone in water (Plasmopara viticola; Concentration 3.00%): 76.51%; in vitro activity against Plasmopara viticola, ingredient alone in water (Plasmopara viticola; Concentration 6.00%): 91.75%; in vitro activity against Plasmopara viticola, ingredient alone in water (Plasmopara viticola; Concentration 10.00%): 95.94%
boron ethanolamine [Bo 0.49%] | >10 | 6.5 | 0.9 | −0.5 | −2.6 | 2.4 | −3.6 | −3.3 | 8.6 | 7.6 | 5.3 | −1.6 | −0.8 | −4.3 | −1.0 |  | 17.33 | 68.80 | 84.60 | 90.99 | in vitro activity against Plasmopara viticola, ingredient alone in water (Plasmopara viticola; Concentration 3.00%): 95.55%; in vitro activity against Plasmopara viticola, ingredient alone in water (Plasmopara viticola; Concentration 6.00%): 98.96%; in vitro activity against Plasmopara viticola, ingredient alone in water (Plasmopara viticola; Concentration 10.00%): 99.00%
O=S(=O)([O-])[O-].[Zn+2] [Zn 7%] | >10 | −1.4 | 6.3 | 16.6 | 32.1 | 37.2 | 49.7 | 59.1 | −4.9 | 28.1 | 39.8 | 44.1 | 47.4 | 65.0 | 77.2 | >10 | 7.02 | 50.25 | 65.51 | 99.08 | in vitro activity against Plasmopara viticola, ingredient alone in water (Plasmopara viticola; Concentration 3.00%): 99.29%; in vitro activity against Plasmopara viticola, ingredient alone in water (Plasmopara viticola; Concentration 6.00%): 98.93%; in vitro activity against Plasmopara viticola, ingredient alone in water (Plasmopara viticola; Concentration 10.00%): 99.08%
